According to patent US9695155B2, “Herbicidal substituted pyrimidinyloxy benzene compounds” (E. I. DU PONT DE NEMOURS AND COMPANY, priority 2013, dated 2017):

Legend:
goosegrass = test: Test C postemergence; format: in vivo, Eleusine indica; conditions: for Plant response rating (0 to 100), Goosegrass: postemergence; for Plant response rating, Goosegrass: Postemergence, scale 0 to 100 (0 no effect, 100 complete control)
Text: (§1) Seeds of plant species selected from blackgrass (Alopecurus myosuroides), Italian ryegrass (Lolium multiflorum), wheat, winter (winter wheat, Triticum aestivum), galium (catchweed bedstraw, Galium aparine), corn (Zea mays), large (Lg) crabgrass (Digitaria sanguinalis), giant foxtail (Setaria faberii), johnsongrass (Sorghum halepense), lambsquarters (Chenopodium album), morningglory (Ipomoea coccinea), yellow nutsedge (Cyperus esculentus), pigweed (Amaranthus retroflexus), ragweed (common ragweed, Ambrosia elatior), soybean (Glycine max), barnyardgrass (Echinochloa crus-galli), oilseed rape (Brassica napus), waterhemp (common waterhemp, Amaranthus rudis), kochia (Kochia scoparia), wild oat (Avena fatua), surinam grass (Brachiaria decumbens), foxtail, green (green foxtail, Setaria viridis), goosegrass (Eleusine indica), bromegrass, downy (downy bromegrass, Bromus tectorum), nightshade (eastern black nightshade, Solanum ptycanthum), cocklebur (common cocklebur, Xanthium strumarium), cupgrass, woolly (woolly cupgrass, Eriochloa villosa), bermudagrass (Cynodon dactylon), sunflower, (common oilseed sunflower, Helianthus annuus), Russian thistle (Salsola kali), and velvetleaf (Abutilon theophrasti) were planted into a blend of loam soil and sand and treated preemergence with test chemicals formulated in a non-phytotoxic solvent mixture which included a surfactant.
(§2) At the same time, plants selected from these crop and weed species and also barley, winter (winter barley, Hordeum vulgare), windgrass (Apera spica-venti), chickweed (common chickweed, Stellaria media), deadnettle (henbit deadnettle, Lamium amplexicaule), and canarygrass (littleseed canarygrass, Phalaris minor) were planted in pots containing Redi-Earth® planting medium (Scotts Company, 14111 Scottslawn Road, Marysville, Ohio 43041) comprising spaghnum peat moss, vermiculite, wetting agent and starter nutrients and treated with postemergence applications of test chemicals formulated in the same manner. Plants ranged in height from 2 to 18 cm (1- to 4-leaf stage) for postemergence treatments. Treated plants and controls were maintained in a greenhouse for 13 to 15 days, after which time all species were compared to controls and visually evaluated. Plant response ratings, summarized in Table C, are based on a scale of 0 to 100 where 0 is no effect and 100 is complete control. A dash (-) response means no test result.

wild oat = test: Test C preemergence; format: in vivo, Avena fatua; conditions: for Oat, Wild plant response rating: preemergence, scale 0 (no effect) to 100 (complete control); for Plant response rating, Oat, Wild: Preemergence, 31 g ai/ha, scale 0 to 100, 0 no effect, 100 complete control
Text: as §1, §2

cocklebur = test: Test C postemergence; format: in vivo, Xanthium strumarium; conditions: for Plant response rating (0 to 100), Cocklebur: postemergence; for Plant response rating, Cocklebur: Postemergence, scale 0 to 100 (0 no effect, 100 complete control)
Text: as §1, §2

cupgrass, woolly = test: Test C preemergence; format: in vivo, Eriochloa villosa; conditions: for Cupgrass, Woolly plant response rating: preemergence, scale 0 (no effect) to 100 (complete control); for Plant response rating, Cupgrass, Woolly: Preemergence, 31 g ai/ha, scale 0 to 100, 0 no effect, 100 complete control
Text: as §1, §2

palmer pigweed = test: Test E postemergence; format: in vivo, Amaranthus palmeri; conditions: for pest or weed control at 250 g/ha: 250 g ai/ha
Text: Seeds of plant species selected from corn (Zea mays), soybean (Glycine max), velvetleaf (Abutilon theophrasti), lambsquarters (Chenopodium album), wild poinsettia (Euphorbia heterophylla), palmer pigweed (Amaranthus palmeri), waterhemp (common waterhemp, Amaranthus rudis), surinam grass (Brachiaria decumbens), large (Lg) crabgrass (Digitaria sanguinalis), Brazilian crabgrass (Digitaria horizontalis), fall panicum (Panicum dichotomiflorum), giant foxtail (Setaria faberii), green foxtail (Setaria viridis), goosegrass (Eleusine indica), johnsongrass (Sorghum halepense), ragweed (common ragweed, Ambrosia elatior), barnyardgrass (Echinochloa crus-galli), sandbur (southern sandbur, Cenchrus echinatus), arrowleaf sida (Sida rhombifolia), Italian ryegrass (Lolium multiflorum), dayflower (Virginia (VA) dayflower, Commelina virginica), field bindweed (Convolvulus arvensis), morningglory (Ipomoea coccinea), nightshade (eastern black nightshade, Solanum ptycanthum), kochia (Kochia scoparia), yellow nutsedge (Cyperus esculentus), cocklebur (common cocklebur, Xanthium strumarium), smartweed (ladysthumb smartweed, and hairy beggarticks (Bidens pilosa), were planted into a silt loam soil and treated preemergence with test chemicals formulated in a non-phytotoxic solvent mixture which included a surfactant.
At the same time, plants from these crop and weed species and also horseweed (Canada horseweed, Conyza canadensis), waterhemp_RES1, (ALS & Triazine resistant common waterhemp, Amaranthus rudis), and waterhemp_RES2, (ALS & HPPD resistant common waterhemp, Amaranthus rudis) were planted in pots containing Redi-Earth® planting medium (Scotts Company, 14111 Scottslawn Road, Marysville, Ohio 43041) comprising spaghnum peat moss, vermiculite, wetting agent and starter nutrients were treated with postemergence applications of test chemicals formulated in the same manner. Plants ranged in height from 2 to 18 cm for postemergence treatments (1- to 4-leaf stage). Treated plants and controls were maintained in a greenhouse for 14 to 21 days, after which time all species were compared to controls and visually evaluated. Plant response ratings, summarized in Table E, are based on a scale of 0 to 100 where 0 is no effect and 100 is complete control. A dash (-) response means no test result.

foxtail, green = test: Test C postemergence; format: in vivo, Setaria viridis; conditions: for Plant response rating (0 to 100), Foxtail, Green: postemergence; for Plant response rating, Foxtail, Green: Postemergence, scale 0 to 100 (0 no effect, 100 complete control)
Text: as §1, §2

[1] = post-emergence, Postemergence, 31 g ai/ha, scale 0 to 100, read-out: Plant response rating, Pigweed, Palmer
[2] = post-emergence, Postemergence, 62 g ai/ha, scale 0 to 100, read-out: Plant response rating, Pigweed, Palmer
[3] = post-emergence, Postemergence, 125 g ai/ha, scale 0 to 100, read-out: Plant response rating, Pigweed, Palmer
[4] = post-emergence, postemergence, 16 g ai/ha, scale 0 to 100, 0 no effect, 100 complete control, read-out: Plant response rating, Pigweed, Palmer
[5] = post-emergence, Postemergence, scale 0 to 100, read-out: Plant response rating, Pigweed, Palmer

| Compound | Plant response rating (0 to 100), Goosegrass (goosegrass; 125 g ai/ha) | Plant response rating (0 to 100), Goosegrass (goosegrass; 250 g ai/ha) | Plant response rating, Goosegrass (goosegrass; 31 g ai/ha, 13 to 15 days) | Plant response rating, Goosegrass (goosegrass; 62 g ai/ha) | Oat, Wild plant response rating (wild oat; 62 g ai/ha) | Oat, Wild plant response rating (wild oat; 125 g ai/ha) | Oat, Wild plant response rating (wild oat; 250 g ai/ha) | Plant response rating, Oat, Wild (wild oat) | Plant response rating (0 to 100), Cocklebur (cocklebur; 250 g ai/ha) | Plant response rating, Cocklebur (cocklebur; 31 g ai/ha, 13 to 15 days) | Plant response rating, Cocklebur (cocklebur; 62 g ai/ha) | Cupgrass, Woolly plant response rating (cupgrass, woolly; 62 g ai/ha) | Cupgrass, Woolly plant response rating (cupgrass, woolly; 125 g ai/ha) | Cupgrass, Woolly plant response rating (cupgrass, woolly; 250 g ai/ha) | Plant response rating, Cupgrass, Woolly (cupgrass, woolly) | pest or weed control at 31 g/ha (palmer pigweed; [1]) | pest or weed control at 62 g/ha (palmer pigweed; [2]) | pest or weed control at 125 g/ha (palmer pigweed; [3]) | pest or weed control at 16 g/ha (palmer pigweed; [4]) | Plant response rating (0 to 100), Foxtail, Green (foxtail, green; 125 g ai/ha) | other results |
| --- | --- | --- | --- | --- | --- | --- | --- | --- | --- | --- | --- | --- | --- | --- | --- | --- | --- | --- | --- | --- | --- |
| Clc1cnc(Oc2ccccc2-n2cc(Br)cn2)nc1 [Compound 7, 2-[2-(4-bromo-1H-pyrazol-1-yl)phenoxy]-5-chloropyrimidine] | 15 | 15 | 0 | 5 | 5 | 50 | 80 | 0 | 80 | 35 | 45 | 55 | 98 | 98 | 15 | 50% | 75% | 85% | 60% | 50 | Plant response rating (0 to 100), Cocklebur (cocklebur; 125 g ai/ha): 55; pest or weed control at 8 g/ha (palmer pigweed; post-emergence, postemergence, 8 g ai/ha, scale 0 to 100, 0 no effect, 100 complete control, read-out: Plant response rating, Pigweed, Palmer): 40%; Plant response rating (0 to 100), Foxtail, Green (foxtail, green; 250 g ai/ha): 98; Plant response rating, Foxtail, Green (foxtail, green; 31 g ai/ha, 13 to 15 days): 0 |
| Fc1cnc(Oc2ccccc2-n2cc(Br)cn2)nc1 [Compound 10, 2-[2-(4-bromo-1H-pyrazol-1-yl)phenoxy]-5-fluoropyrimidine] | 5 | 10 | 0 | 5 |  |  |  |  | 100 | 45 | 55 |  |  |  |  | 70% | 75% | 85% | 60% | 0 | Plant response rating (0 to 100), Cocklebur (cocklebur; 125 g ai/ha): 55; pest or weed control at 250 g/ha (palmer pigweed; [5]): 95%; Plant response rating (0 to 100), Foxtail, Green (foxtail, green; 250 g ai/ha): 30; Plant response rating, Foxtail, Green (foxtail, green; 31 g ai/ha, 13 to 15 days): 0; Plant response rating, Foxtail, Green (foxtail, green; 62 g ai/ha): 0 |
| FC(F)(F)c1cnn(-c2ccccc2Oc2ncc(Cl)cn2)c1 [Compound 16] | 15 | 30 | 0 | 10 | 90 | 90 | 90 | 50 | 80 | 50 | 55 | 90 | 98 | 98 | 75 |  |  |  |  | 30 | Plant response rating (0 to 100), Foxtail, Green (foxtail, green; 250 g ai/ha): 100; Plant response rating, Foxtail, Green (foxtail, green; 31 g ai/ha, 13 to 15 days): 10; Plant response rating, Foxtail, Green (foxtail, green; 62 g ai/ha): 30 |
| FC(F)(F)c1cnn(-c2ccccc2Oc2ncc(Br)cn2)c1 [Compound 18, 5-bromo-2-[2-[4-(trifluoromethyl)-1H-pyrazol-1-yl]phenoxy]pyrimidine] |  |  |  |  | 50 | 80 | 85 | 0 |  |  |  | 55 | 98 | 100 | 40 |  |  |  |  |  |  |
| N#Cc1cccc(Oc2ncc(Cl)cn2)c1-n1cc(C(F)(F)F)cn1 [Compound 58, 3-[(5-chloro-2-pyrimidinyl)oxy]-2-[4-(trifluoromethyl)-1H-pyrazol-1-yl]benzonitrile] |  |  |  |  |  |  |  |  |  |  |  |  |  |  |  | 95% | 100% | 100% | 90% |  | pest or weed control at 250 g/ha (palmer pigweed; [5]): 100% |
| N#Cc1cccc(Oc2ncc(Br)cn2)c1-n1cc(C(F)(F)F)cn1 [Compound 59, 3-[(5-bromo-2-pyrimidinyl)oxy]-2-[4-(trifluoromethyl)-1H-pyrazol-1-yl]benzonitrile] |  |  |  |  |  |  |  |  |  |  |  |  |  |  |  | 80% | 85% | 100% | 75% |  | pest or weed control at 250 g/ha (palmer pigweed; [5]): 100% |
| Clc1cnc(Oc2cccc(Br)c2-n2cc(Br)cn2)nc1 [Compound 65] |  |  |  |  |  |  |  |  |  |  |  |  |  |  |  |  |  |  |  |  | Plant response rating, Pigweed, Palmer (palmer pigweed; Postemergence, 31 g ai/ha, scale 0 to 100): 50; Plant response rating, Pigweed, Palmer (palmer pigweed; Postemergence, 62 g ai/ha, scale 0 to 100): 50; Plant response rating, Pigweed, Palmer (palmer pigweed; Postemergence, 125 g ai/ha, scale 0 to 100): 60; Plant response rating, Pigweed, Palmer (palmer pigweed; postemergence, 8 g ai/ha, scale 0 to 100, 0 no effect, 100 complete control): 10; Plant response rating, Pigweed, Palmer (palmer pigweed; postemergence, 16 g ai/ha, scale 0 to 100, 0 no effect, 100 complete control): 20 |
